Patent publication US6737383B1, “Herbicidal oxadiazolidines” (priority 1999, dated 2004)

Legend:
[1] = tested on: blackgrass; assay: Test E blackgrass; assay type: in vivo, Alopecurus myosuroides; conditions: Preemergence; for Blackgrass plant response rating (0 to 100 scale): Rate 250 g/ha
[2] = tested on: Italian ryegrass; assay: Test E Italian ryegrass; assay type: in vivo, Lolium multiflorum; conditions: Preemergence; for I. Ryegrass plant response rating (0 to 100 scale): Rate 250 g/ha
[3] = tested on: winter wheat; assay: Test E winter wheat; assay type: in vivo, Triticum aestivum; conditions: Preemergence; for Wheat (winter) plant response rating (0 to 100 scale): Rate 250 g/ha
[4] = tested on: wild oat; assay: Test E wild oat; assay type: in vivo, Avena fatua; conditions: Preemergence; for Wild oat plant response rating (0 to 100 scale): Rate 250 g/ha
[5] = tested on: cocklebur; assay: Test B pre/postemergence cocklebur; assay type: in vivo, Xanthium strumarium
Summary of the method: (§1)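 Herbicidal effect was estimated by eye on a ten-point control scale after plants spent twelve to sixteen days in a greenhouse following soil or foliar treatment. Foliar sprays targeted plants at one to four leaves; all doses were formulated in a non-phytotoxic solvent with surfactant.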

[6] = tested on: surinam grass; assay: Test B pre/postemergence surinam grass; assay type: in vivo, Brachiaria decumbens
Summary of the method: as §1

[7] = tested on: green foxtail; assay: Test E green foxtail; assay type: in vivo, Setaria viridis; conditions: Preemergence; for Green foxtail plant response rating (0 to 100 scale): Rate 250 g/ha
[8] = tested on: winter wheat; assay: Test E winter wheat; assay type: in vivo, Triticum aestivum; conditions: Postemergence; for Wheat (winter) plant response rating: Rate 250 g/ha
Summary of the method: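 For postemergence, application to 1- to 4-leaf plants growing in a 60:40 sandy loam–potting mix substrate. Formulation: non-phytotoxic solvent mixture plus surfactant. Untreated controls served as the reference for the visual rating after ~21–28 days.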

[9] = tested on: winter barley; assay: Test E winter barley; assay type: in vivo, Hordeum vulgare; conditions: Preemergence; for Barley (winter) plant response rating (0 to 100 scale): Rate 250 g/ha
[10] = tested on: corn; assay: Test B pre/postemergence corn; assay type: in vivo, Zea mays
Summary of the method: as §1

[11] = tested on: crabgrass; assay: Test B pre/postemergence crabgrass; assay type: in vivo, Digitaria sanguinalis
Summary of the method: as §1

[12] = Rate 500 g/ha, 0 to 100 scale where 0 is no effect and 100 is complete control
[13] = Rate 1000 g/ha, 0 to 100 scale where 0 is no effect and 100 is complete control
[14] = Postemergence, Rate 125 g/ha, scale of 0 to 10 where 0 is no effect and 10 is complete control
[15] = Preemergence, Rate 62 g/ha, scale 0 to 10 (0 no effect, 10 complete control)
[16] = Preemergence, Rate 125 g/ha, 0 is no effect, 10 is complete control
[17] = Preemergence, Rate 250 g/ha, scale 0 to 10, 0 is no effect, 10 is complete control
[18] = Preemergence, Rate 500 g/ha, scale 0 to 10 (0 no effect, 10 complete control)
[19] = Rate 62 g/ha, Postemergence, scale of 0 to 10 where 0 is no effect and 10 is complete control
[20] = Rate 250 g/ha, Postemergence, scale 0 to 10, 0 is no effect, 10 is complete control
[21] = Rate 500 g/ha, Postemergence, scale 0 to 10
[22] = 0 to 100 scale where 0 is no effect and 100 is complete control
[23] = Rate 500 g/ha, 0 to 100 scale (0 no effect, 100 complete control)
[24] = Rate 1000 g/ha, 0 to 100 scale, 0 no effect, 100 complete control
[25] = Postemergence, Rate 31 g/ha, visual rating, scale 0 to 10 (0 no effect, 10 complete control)
[26] = Preemergence, Rate 31 g/ha, visual rating, scale 0 to 10 (0 no effect, 10 complete control)
[27] = Preemergence, Rate 62 g/ha, scale of 0 to 10 where 0 is no effect and 10 is complete control
[28] = Rate 16 g/ha, Postemergence, scale 0 to 10, 0 no effect, 10 complete control
[29] = Rate 16 g/ha, Preemergence, scale 0 to 10, 0 no effect, 10 complete control
[30] = Rate 62 g/ha, Postemergence, scale 0 to 10 (0 no effect, 10 complete control)
[31] = Rate 125 g/ha, Postemergence, scale of 0 to 10 where 0 is no effect and 10 is complete control
[32] = Rate 125 g/ha, Preemergence, scale of 0 to 10 where 0 is no effect and 10 is complete control

In the case of `Cc1nsc(C)c1-n1c(=O)on(C(=O)N(c2ccc(F)cc2)C(C)C)c1=O` [Compound 157], the “Blackgrass plant response rating (0 to 100 scale)” value [1] is reported as 20, the “Plant response rating, Blackgrass” value [1, 12] is reported as 40 and the “Plant response rating, Blackgrass” value [1, 13] is reported as 50. The “I. Ryegrass plant response rating (0 to 100 scale)” value [2] was 20, the “Plant response rating, I. Ryegrass” value [2, 12] was 30 and the “Plant response rating, I. Ryegrass” value [2, 13] was 50. For the same compound, the “Wheat (winter) plant response rating (0 to 100 scale)” value [3] was 20, the “Plant response rating, Wheat (winter)” value [3, 12] was 30 and the “Plant response rating, Wheat (winter)” value [3, 13] was 40. For the same compound, the “Wild oat plant response rating (0 to 100 scale)” value [4] was 50, the “Plant response rating, Wild oat” value [4, 12] was 30 and the “Plant response rating, Wild oat” value [4, 13] was 50. The “Cocklebur plant response rating” value [5, 14] was 0, the “Cocklebur plant response rating” value [5, 15] was 0 and the “Cocklebur plant response rating (0 to 10 scale)” value [5, 16] was 0. The “Cocklebur plant response rating” value [5, 17] was 0, the “Cocklebur plant response rating” value [5, 18] was 0 and the “Cocklebur plant response rating” value [5, 19] was 0. For the same compound, the “Plant response rating, Cocklebur” value [5, 20] was 0, the “Cocklebur plant response rating” value [5, 21] was 0 and the “B. signalgrass plant response rating” value [6, 14] was 0. For the same compound, the “B. signalgrass plant response rating” value [6, 15] was 0, the “B. signalgrass plant response rating (0 to 10 scale)” value [6, 16] was 0 and the “B. signalgrass plant response rating” value [6, 17] was 0. For the same compound, the “B. signalgrass plant response rating” value [6, 18] was 0, the “B. signalgrass plant response rating” value [6, 19] was 0 and the “Plant response rating, B. signalgrass” value [6, 20] was 0. The “B. signalgrass plant response rating” value ([6]; Rate 500 g/ha, Postemergence, scale 0 to 10, 0 no effect, 10 complete control) was 0, the “Green foxtail plant response rating (0 to 100 scale)” value [7] was 30 and the “Plant response rating, Green foxtail” value [7, 12] was 40. The “Plant response rating, Green foxtail” value [7, 13] was 50, the “Plant response rating, Wheat (winter)” value ([8]; Rate 1000 g/ha, 0 to 100 scale, 0 is no effect and 100 is complete control) was 40 and the “Plant response rating, Wheat (winter)” value ([8]; Rate 500 g/ha, 0 to 100 scale, 0 no effect, 100 complete control) was 30. For the same compound, the “Wheat (winter) plant response rating” value [8, 22] was 20, the “Barley (winter) plant response rating (0 to 100 scale)” value [9] was 0 and the “Plant response rating, Barley (winter)” value [9, 12] was 10. The “Plant response rating, Barley (winter)” value [9, 13] was 30, the “Corn plant response rating” value [10, 14] was 0 and the “Corn plant response rating” value [10, 15] was 0. For the same compound, the “Corn plant response rating (0 to 10 scale)” value [10, 16] was 0, the “Corn plant response rating” value [10, 17] was 0 and the “Corn plant response rating” value [10, 18] was 0. For the same compound, the “Corn plant response rating” value [10, 19] was 0, the “Plant response rating, Corn” value [10, 20] was 0 and the “Corn plant response rating” value [10, 21] was 0. For the same compound, the “Crabgrass plant response rating” value [11, 14] was 0, the “Crabgrass plant response rating” value [11, 15] was 0 and the “Crabgrass plant response rating (0 to 10 scale)” value [11, 16] was 2. The “Crabgrass plant response rating” value [11, 17] was 4, the “Crabgrass plant response rating” value [11, 18] was 6 and the “Crabgrass plant response rating” value [11, 19] was 0. For the same compound, the “Plant response rating, Crabgrass” value [11, 20] was 2 and the “Crabgrass plant response rating” value [11, 21] was 7.

`CCCCCn1c(=O)on(C(=O)N(c2ccc(F)cc2)C(C)C)c1=O` [Compound 290] was tested, and the “Blackgrass plant response rating (0 to 100 scale)” value [1] was 60, the “Plant response rating, Blackgrass” value [1, 23] was 70 and the “Plant response rating, Blackgrass” value [1, 24] was 95. For the same compound, the “I. Ryegrass plant response rating (0 to 100 scale)” value [2] was 60, the “Plant response rating, I. Ryegrass” value [2, 23] was 70 and the “Plant response rating, I. Ryegrass” value [2, 24] was 90. The “Wheat (winter) plant response rating (0 to 100 scale)” value [3] was 10, the “Plant response rating, Wheat (winter)” value [3, 23] was 30 and the “Plant response rating, Wheat (winter)” value [3, 24] was 50. For the same compound, the “Wild oat plant response rating (0 to 100 scale)” value [4] was 60, the “Plant response rating, Wild oat” value [4, 23] was 70 and the “Plant response rating, Wild oat” value [4, 24] was 70. The “Cocklebur plant response rating” value [5, 25] was 0, the “Cocklebur plant response rating” value [5, 26] was 0 and the “Cocklebur plant response rating” value [5, 27] was 0. The “Cocklebur plant response rating” value [5, 28] was 0, the “Cocklebur plant response rating” value [5, 29] was 0 and the “Cocklebur plant response rating” value [5, 30] was 0. For the same compound, the “Cocklebur plant response rating” value [5, 31] was 0, the “Cocklebur plant response rating” value [5, 32] was 0 and the “B. signalgrass plant response rating” value [6, 25] was 0. For the same compound, the “B. signalgrass plant response rating” value [6, 26] was 0, the “B. signalgrass plant response rating” value [6, 27] was 0 and the “B. signalgrass plant response rating” value [6, 28] was 0. For the same compound, the “B. signalgrass plant response rating” value [6, 29] was 0, the “B. signalgrass plant response rating” value [6, 30] was 0 and the “B. signalgrass plant response rating” value [6, 31] was 0. For the same compound, the “B. signalgrass plant response rating” value [6, 32] was 0, the “Green foxtail plant response rating (0 to 100 scale)” value [7] was 65 and the “Plant response rating, Green foxtail” value [7, 23] was 70. For the same compound, the “Plant response rating, Green foxtail” value [7, 24] was 85, the “Plant response rating, Wheat (winter)” value [8, 13] was 70 and the “Wheat (winter) plant response rating” value [8, 22] was 50. The “Plant response rating, Wheat (winter)” value ([8]; Rate 500 g/ha, 0 to 100 scale, 0 is no effect, 100 is complete control) was 60, the “Barley (winter) plant response rating (0 to 100 scale)” value [9] was 55 and the “Plant response rating, Barley (winter)” value [9, 23] was 60. For the same compound, the “Plant response rating, Barley (winter)” value [9, 24] was 70, the “Corn plant response rating” value [10, 25] was 0 and the “Corn plant response rating” value [10, 26] was 0. The “Corn plant response rating” value [10, 27] was 0, the “Corn plant response rating” value [10, 28] was 0 and the “Corn plant response rating” value [10, 29] was 0. For the same compound, the “Corn plant response rating” value [10, 30] was 0, the “Corn plant response rating” value [10, 31] was 0 and the “Corn plant response rating” value [10, 32] was 0. For the same compound, the “Crabgrass plant response rating” value [11, 25] was 0, the “Crabgrass plant response rating” value [11, 26] was 0 and the “Crabgrass plant response rating” value [11, 27] was 1. For the same compound, the “Crabgrass plant response rating” value [11, 28] was 0, the “Crabgrass plant response rating” value [11, 29] was 0 and the “Crabgrass plant response rating” value [11, 30] was 0. The “Crabgrass plant response rating” value [11, 31] was 0 and the “Crabgrass plant response rating” value [11, 32] was 3.
